These results are taken from article PMC3606667 (Journal of natural products, 2013).

Structures are written as SMILES. Where two headings read alike, the source gives them in different places. Bounds are passed on as bounds.

In one data set the target is NF-κB (p65) (Homo sapiens, UniProt Q04206). The data set is described as follows: Enzyme-based ELISA NF-κB. As to conditions: for NF-κB (p65) inhibitory activity (in words): ELISA assay; for times more potent than the control compound rocaglamide in NF-κB (p65) assay: relative to rocaglamide. The format is biochemical.
Chain of NF-κB (p65) (Q04206 whole entry): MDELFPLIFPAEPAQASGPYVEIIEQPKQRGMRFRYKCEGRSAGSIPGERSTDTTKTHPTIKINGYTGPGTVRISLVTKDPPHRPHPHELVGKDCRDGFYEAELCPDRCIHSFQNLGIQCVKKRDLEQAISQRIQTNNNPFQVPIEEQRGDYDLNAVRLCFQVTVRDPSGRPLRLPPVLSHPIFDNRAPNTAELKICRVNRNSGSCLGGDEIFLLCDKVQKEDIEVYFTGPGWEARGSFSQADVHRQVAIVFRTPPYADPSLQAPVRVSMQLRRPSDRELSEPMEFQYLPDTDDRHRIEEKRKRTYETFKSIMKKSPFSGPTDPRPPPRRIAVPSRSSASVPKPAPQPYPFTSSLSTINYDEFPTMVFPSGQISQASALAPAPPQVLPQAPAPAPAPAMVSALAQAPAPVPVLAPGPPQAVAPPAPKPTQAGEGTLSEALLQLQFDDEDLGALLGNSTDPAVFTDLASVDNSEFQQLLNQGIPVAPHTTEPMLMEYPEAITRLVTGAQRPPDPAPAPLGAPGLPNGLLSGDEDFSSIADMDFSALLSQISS
Data set [1] has as its system CCD-112CoN normal colon cell line. As to the kind of experiment: Cytotoxicity against CCD-112CoN normal colon cell line. The format is cell-based. As to conditions: read-out: CCD112CoNl ED50.
For data set [2], the system named is human monocytic leukemia cell line MONO-MAC-6. Conditions: cited from earlier work.
The test system of data set [3] is human monocytic leukemia cell line MONO-MAC-1. As to conditions: cited from earlier work.
In data set [4] the test system is LNCaP human prostate cancer cells. As to conditions: cited from earlier work.
Data set [5] concerns HT-29 human colon cancer cells. The data set is described as follows: Cytotoxicity against HT-29 human colon cancer cells. Conditions: relative to perviridisin B (2), ED50 0.46 µM. The format is cell-based.
Setting [6] is: NF-κB (p65) ED50, ELISA assay, ED50 > 20 µM inactive.

For orientation: IC50 means the midpoint of a concentration-inhibition curve. Low readings indicate greater potency, high ones weaker potency.

With `CC(C)[C@H]1CC[C@]2(C)C(=O)CCC(C=O)=C[C@H]12` [Compound 17, 2-oxaisodauc-5-en-12-al], at NF-κB (p65), the midpoint of inhibition, the IC50, lay at 0.005 µM; the “NF-κB (p65) inhibitory activity (in words)” value is “significant NF-κB (p65) inhibitory activity”; the “times more potent than the control compound rocaglamide in NF-κB (p65) assay” value is “more than 10 times”.
As to `COC(=O)[C@H]1[C@@H](O)[C@@]2(OC)c3c(OC)cc(OC)cc3O[C@@]2(c2ccc3c(c2)OCO3)[C@@H]1c1ccccc1` [Compound 4, methyl 8b-O-methyl-4′-demethoxy-3′,4′-methylenedioxyrocaglate], in data set [1], the CC50 is over 50 µM. The compound also came in with an IC50 against NF-κB (p65) (setting [6]) of over 20 µM.
As for `COc1ccc([C@@]23Oc4cc(OC)cc(OC)c4[C@]2(O)[C@H](O)[C@H](C(N)=O)[C@H]3c2ccccc2)cc1` [Compound 13, didesmethylrocaglamide], in data set [1], the CC50 is over 50 µM. On NF-κB (p65) (setting [6]), this compound came in with an IC50 of over 20 µM.
At NF-κB (p65) (setting [6]), `CC1(C)[C@H](O)CC[C@]2(C)[C@H]3CC[C@@H]4[C@@H]([C@]5(C)CCC(=O)O5)CC[C@@]4(C)[C@]3(C)CC[C@@H]12` [cabraleahydroxylactone] yielded a concentration for half-maximal inhibition (IC50) of over 20 µM.
With `COc1cc2ccc(=O)oc2cc1O` [scopoletin], on NF-κB (p65) (setting [6]), the IC50 was over 20 µM.
As for `COC(=O)[C@H]1[C@@H](O)[C@@]2(O)c3c(OC)cc(OC)cc3O[C@@]2(c2ccc3c(c2)OCO3)[C@@H]1c1ccccc1` [Compound 12, methyl 4′-demethoxy-3′,4′-methylenedioxyrocaglate], in data set [1], the CC50 is over 50 µM. Also, at NF-κB (p65), it took 3.54 µM to reach half-maximal inhibition (IC50) and the “NF-κB (p65) inhibitory activity (in words)” value is “significant NF-κB (p65) inhibitory activity”.
For `COc1cc(OC)c2c(c1)O[C@@]1(c3ccc4c(c3)OCO4)[C@H](c3ccccc3)C[C@@H](O)[C@@]21OC` [Compound 3, 8b-O-methyl-4′-demethoxy-3′,4′-methylenedioxyrocaglaol], in data set [1], the CC50 is over 50 µM. On NF-κB (p65) (setting [6]), this compound returned an IC50 of over 20 µM.
As to `CC1=CC(O)N(CCCCNC(=O)/C=C/c2ccccc2)C1=O` (stereo not shown) [gigantamide A], the IC50 on NF-κB (p65) is over 20 µM.
In the case of `COc1ccc([C@@]23Oc4cc(OC)cc(OC)c4[C@]2(OC)[C@H](O)C[C@H]3c2ccccc2)cc1` [8b-O-methylrocaglaol], the “cytotoxicity result in MONO-MAC-6” value in data set [2] is on record as “negative result”. Further, the “cytotoxicity result in MONO-MAC-1” value in data set [3] is “negative result”. In addition, the IC50 against NF-κB (p65) (setting [6]) was over 20 µM.
With `COC(=O)[C@H]1[C@@H](OC=O)[C@@]2(O)c3c(OC)cc(OC)cc3O[C@@]2(c2ccc(OC)cc2)[C@@H]1c1ccccc1` [Compound 15, methyl 1-formyloxyrocaglate], the CC50 in data set [1] is over 50 µM. For the same compound, the IC50 on NF-κB (p65) (setting [6]) is over 20 µM.
On to `COc1cc(OC)c2c(c1)O[C@@]1(c3ccc4c(c3)OCO4)[C@H](c3ccccc3)C[C@@H](O)[C@@]21O` [Compound 11, 4′-demethoxy-3′,4′-methylenedioxyrocaglaol], for which, in data set [1], the CC50 was over 50 µM. For the same compound, on NF-κB (p65), the IC50 is 0.33 µM and the “NF-κB (p65) inhibitory activity (in words)” value is “significant NF-κB (p65) inhibitory activity”.
In the case of `COc1ccc(-c2oc3cc(OC)cc(OC)c3c(=O)c2O)cc1` [5,7,4′-tri-O-methylkaempferol], the IC50 against NF-κB (p65) is over 20 µM.
`COc1ccc([C@@]23Oc4cc(OC)cc(OC)c4[C@]2(O)[C@H](O)[C@H](C(=O)N(C)C)[C@H]3c2ccccc2)cc1` [rocaglamide, reference compound]: in data set [1], the CC50 was over 50 µM.
For `COc1ccc([C@]23Oc4cc(OC)cc(OC)c4[C@](O)(C2O)[C@@H](c2ccccc2)[C@@H]3C(=O)NCCCCNC(=O)/C(C)=C/CO)cc1` (stereo partly shown) [Compound 2, perviridisin B], the CC50 in data set [1] was over 50 µM. The “NF-κB (p65) inhibitory activity (in words)” value on NF-κB (p65) is on record as “significant NF-κB (p65) inhibitory activity”. At NF-κB (p65) (NF-κB (p65) ED50), this compound displayed an IC50 of 2.4 µM.
As to `COC(=O)[C@H]1[C@@H](O)[C@@]2(OC)c3c(OC)cc(OC)cc3O[C@@]2(c2ccc(OC)cc2)[C@@H]1c1ccccc1` [Compound 16, methyl 8b-O-methylrocaglate], the “cytotoxicity result in MONO-MAC-6” value in data set [2] is on record as “negative result”. In addition, in data set [1], the CC50 was over 50 µM. Moreover, the “cytotoxicity result in MONO-MAC-1” value in data set [3] was “negative result”. The compound also gave an IC50 on NF-κB (p65) (setting [6]) of over 20 µM.
For the compound `COc1ccc([C@@]23Oc4cc(OC)cc(OC)c4[C@]2(O)[C@H](O)C[C@H]3c2ccccc2)cc1` [Compound 9, rocaglaol], the CC50 in data set [1] is over 50 µM. Moreover, at NF-κB (p65), the IC50 is 0.005 µM, the “NF-κB (p65) inhibitory activity (in words)” value was “significant NF-κB (p65) inhibitory activity” and the “times more potent than the control compound rocaglamide in NF-κB (p65) assay” value is “more than 10 times”. Also, the “effect on LNCaP cells (cell cycle, apoptosis)” value in data set [4] is “cause G2/M-phase cell cycle arrest and to induce apoptosis”.
On NF-κB (p65) (setting [6]), `CC(C)=C[C@H](O)[C@@H](O)[C@@H](CO)[C@H]1CC[C@@]2(C)[C@@H]3CC[C@H]4C(C)(C)[C@@H](O)CC[C@@]45C[C@@]35CC[C@]12C` [argenteanol] returned an IC50 of over 20 µM.
Consider `COC(=O)[C@H]1[C@@H](O)[C@@]2(O)c3c(OC)cc(OC)cc3O[C@@]2(c2ccc(OC)cc2)[C@@H]1c1ccccc1` [Compound 10, methyl rocaglate], for which the CC50 in data set [1] is over 50 µM. Further, the IC50 on NF-κB (p65) (setting [6]) was over 20 µM.
As for `COc1ccc([C@]23Oc4cc(OC)cc(OC)c4[C@](O)(C2O)[C@@H](c2ccccc2)[C@@H]3C(=O)NCCCCNC(=O)/C(C)=C/CO)cc1` (stereo partly shown) [Compound 1, perviridisin A], in data set [5], the “times less active than its C-10 epimer perviridisin B (2) against HT-29 cells” value is “over 25 times”. The same compound registered an IC50 against NF-κB (p65) (setting [6]) of over 20 µM.
Turning to `COC(=O)[C@H]1[C@@H](OC=O)[C@@]2(O)c3c(OC)cc(OC)cc3O[C@@]2(c2ccc3c(c2)OCO3)[C@@H]1c1ccccc1` [Compound 14, methyl 1-formyloxy-4′-demethoxy-3′,4′-methylenedioxyrocaglate], the CC50 in data set [1] is over 50 µM.
